Assay results from patent US10160747B2, “Compounds and methods for kinase modulation, and indications therefor” (Plexxikon Inc., priority 2016, dated 2018).

Legend:
FLT3-D835Y = target: T1, FLT3-D835Y (Homo sapiens, UniProt P36888, D835Y); experiment: FLT3-D835Y recombinant enzyme kinase assay (AlphaScreen); type: biochemical; details: 8 pt, GMean
T1 construct: purchased Invitrogen PV3967
T1 sequence (P36888 27-993 D835Y): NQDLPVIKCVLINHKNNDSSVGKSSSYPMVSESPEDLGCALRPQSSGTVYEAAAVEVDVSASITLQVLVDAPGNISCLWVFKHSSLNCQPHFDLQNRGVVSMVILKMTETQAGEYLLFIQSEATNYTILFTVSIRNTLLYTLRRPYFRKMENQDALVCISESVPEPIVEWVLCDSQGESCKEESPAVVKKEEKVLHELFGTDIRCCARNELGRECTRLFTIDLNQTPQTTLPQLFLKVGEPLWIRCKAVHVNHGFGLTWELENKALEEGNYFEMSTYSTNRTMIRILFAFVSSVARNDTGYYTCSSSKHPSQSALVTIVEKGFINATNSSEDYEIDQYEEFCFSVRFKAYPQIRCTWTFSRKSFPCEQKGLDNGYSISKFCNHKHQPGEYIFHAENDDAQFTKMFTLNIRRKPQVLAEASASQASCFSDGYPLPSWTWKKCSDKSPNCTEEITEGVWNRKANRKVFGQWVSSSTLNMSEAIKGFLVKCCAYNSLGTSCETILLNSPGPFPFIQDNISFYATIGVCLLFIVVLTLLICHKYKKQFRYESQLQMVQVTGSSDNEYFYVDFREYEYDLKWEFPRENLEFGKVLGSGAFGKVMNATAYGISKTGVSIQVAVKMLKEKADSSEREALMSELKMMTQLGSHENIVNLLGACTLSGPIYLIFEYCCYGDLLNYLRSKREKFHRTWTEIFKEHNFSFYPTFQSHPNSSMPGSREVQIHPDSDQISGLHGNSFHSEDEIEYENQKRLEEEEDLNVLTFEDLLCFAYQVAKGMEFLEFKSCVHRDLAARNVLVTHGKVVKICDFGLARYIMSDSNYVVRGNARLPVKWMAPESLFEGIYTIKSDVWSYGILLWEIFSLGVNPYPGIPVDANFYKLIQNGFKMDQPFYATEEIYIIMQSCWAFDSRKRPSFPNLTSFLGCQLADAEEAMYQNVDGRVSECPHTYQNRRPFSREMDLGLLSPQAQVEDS
In short: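 Enzyme plus biotinylated poly(Glu4-Tyr) substrate (30 nM) mixed with compound, then ATP added. Donor beads went in for 20 min at room temperature, then PY20 acceptor beads for 60 min. AlphaScreen read; ATP was 10 μM for FLT3-ITD/D835Y and 100 μM for c-KIT.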

[1] = tested on: MOLM-14 D835Y (endogenous FLT3 ITD and transfected FLT3 D835Y); experiment: MOLM-14 D835Y cell proliferation assay (CellTiter-Glo); type: cell-based; details: Homo sapiens, MOLM-14, 72 h; 3 d growth, GMean
In short: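 MOLM-14 cells (FLT3 ITD) carrying D835Y or F691L, 1×10^4 cells/well, eight 1:3 dilutions from 1 μM final, 0.2% DMSO, 3 days at 37 °C, 5% CO2. Viability by CellTiter-Glo luminescence (ATP content); IC50 from concentration-response.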

## O=C(Cc1ccc(-c2cnc(Nc3cnn(C4CC4)c3)nc2)cc1F)Nc1cncc(C(F)(F)F)c1 [Compound P-0238, 2-[4-[2-[(1-cyclopropylpyrazol-4-yl)amino]pyrimidin-5-yl]-2-fluoro-phenyl]-N-[5-(trifluoromethyl)-3-pyridyl]acetamide]
FLT3-D835Y
  IC50: 0.0001 to 10 µM
[1]
  IC50: 0.0001 to 10 µM

## Cc1ncc(NC(=O)Cc2ccc(-c3cnc(Nc4cnn(C5CC5)c4)nc3)cc2F)cc1C(F)(F)F [Compound P-0239, 2-[4-[2-[(1-cyclopropylpyrazol-4-yl)amino]pyrimidin-5-yl]-2-fluoro-phenyl]-N-[6-methyl-5-(trifluoromethyl)-3-pyridyl]acetamide]
FLT3-D835Y
  IC50: 0.0001 to 10 µM
[1]
  IC50: 0.0001 to 10 µM

## O=C(Cc1ccc(-c2cnc(Nc3cnn(C4CC4)c3)nc2)cc1F)Nc1cnc(Cl)c(C(F)(F)F)c1 [Compound P-0240, N-[6-chloro-5-(trifluoromethyl)-3-pyridyl]-2-[4-[2-[(1-cyclopropylpyrazol-4-yl)amino]pyrimidin-5-yl]-2-fluoro-phenyl]acetamide]
FLT3-D835Y
  IC50: 0.0001 to 10 µM
[1]
  IC50: 0.0001 to 10 µM

## COc1ncc(NC(=O)Cc2ccc(-c3cnc(Nc4cnn(C5CC5)c4)nc3)cc2F)cc1C(F)(F)F [Compound P-0241, 2-[4-[2-[(1-cyclopropylpyrazol-4-yl)amino]pyrimidin-5-yl]-2-fluoro-phenyl]-N-[6-methoxy-5-(trifluoromethyl)-3-pyridyl]acetamide]
FLT3-D835Y
  IC50: 0.0001 to 10 µM
[1]
  IC50: 0.0001 to 10 µM

## O=C(Cc1ccc(-c2cnc(Nc3cnn(C4CC4)c3)nc2)cc1F)Nc1ccc(C(F)(F)F)nc1 [Compound P-0242, 2-[4-[2-[(1-cyclopropylpyrazol-4-yl)amino]pyrimidin-5-yl]-2-fluoro-phenyl]-N-[6-(trifluoromethyl)-3-pyridyl]acetamide]
FLT3-D835Y
  IC50: 0.0001 to 10 µM
[1]
  IC50: 0.0001 to 10 µM

## O=C(Cc1ccc(-c2cnc(Nc3cnn(C4CC4)c3)nc2)cc1F)Nc1ccc(C(F)(F)F)cn1 [Compound P-0243, 2-[4-[2-[(1-cyclopropylpyrazol-4-yl)amino]pyrimidin-5-yl]-2-fluoro-phenyl]-N-[5-(trifluoromethyl)-2-pyridyl]acetamide]
FLT3-D835Y
  IC50: 0.0001 to 10 µM
[1]
  IC50: 0.0001 to 10 µM

## O=C(Cc1ccc(-c2cnc(Nc3cnn(C4CC4)c3)nc2)cc1F)Nc1cc(C(F)(F)F)ccn1 [Compound P-0244, 2-[4-[2-[(1-cyclopropylpyrazol-4-yl)amino]pyrimidin-5-yl]-2-fluoro-phenyl]-N-[4-(trifluoromethyl)-2-pyridyl]acetamide]
FLT3-D835Y
  IC50: 0.0001 to 10 µM
[1]
  IC50: 0.0001 to 10 µM

## CCn1cc(Nc2ncc(-c3ccc(CC(=O)Nc4cnc(OC)c(C(F)(F)F)c4)cc3F)cn2)cn1 [Compound P-0246, 2-[4-[2-[(1-ethylpyrazol-4-yl)amino]pyrimidin-5-yl]-3-fluoro-phenyl]-N-[6-methoxy-5-(trifluoromethyl)-3-pyridyl]acetamide]
FLT3-D835Y
  IC50: 0.0001 to 10 µM
[1]
  IC50: 0.0001 to 10 µM

## CCn1cc(Nc2ncc(-c3cc(F)c(CC(=O)Nc4cnc(OC)c(C(F)(F)F)c4)cc3F)cn2)cn1 [Compound P-0247, 2-[4-[2-[(1-ethylpyrazol-4-yl)amino]pyrimidin-5-yl]-2,5-difluoro-phenyl]-N-[6-methoxy-5-(trifluoromethyl)-3-pyridyl]acetamide]
FLT3-D835Y
  IC50: 0.0001 to 10 µM
[1]
  IC50: 0.0001 to 10 µM

## CCn1cc(Nc2ncc(-c3ccc(CC(=O)Nc4cnc(C)c(C(F)(F)F)c4)cc3F)cn2)cn1 [Compound P-0248, 2-[4-[2-[(1-ethylpyrazol-4-yl)amino]pyrimidin-5-yl]-3-fluoro-phenyl]-N-[6-methyl-5-(trifluoromethyl)-3-pyridyl]acetamide]
FLT3-D835Y
  IC50: 0.0001 to 10 µM
[1]
  IC50: 0.0001 to 10 µM

## CCn1cc(Nc2ncc(-c3cc(F)c(CC(=O)Nc4cnc(C)c(C(F)(F)F)c4)cc3F)cn2)cn1 [Compound P-0249, 2-[4-[2-[(1-ethylpyrazol-4-yl)amino]pyrimidin-5-yl]-2,5-difluoro-phenyl]-N-[6-methyl-5-(trifluoromethyl)-3-pyridyl]acetamide]
FLT3-D835Y
  IC50: 0.0001 to 10 µM
[1]
  IC50: 0.0001 to 10 µM
